One assay has as its target T1, GPR6 (Homo sapiens, UniProt P46095).
T1 construct: expressed in transfected cells; host or cells: CHO cells
Kind of assay: GPR6 antagonist functional cAMP assay (LANCE Ultra cAMP TR-FRET, CHO cells stably expressing GPR6). The class given is cell-based. The essentials:
(§1)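 Suspended cells were plated at 10,000 per well in Krebs-Ringer bicarbonate buffer containing 0.1% BSA and 150 μM Ro 20-1724, then treated with compounds for 45 min at 37 °C. Intracellular cAMP was then quantified by TR-FRET immunoassay.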
(Changes in cAMP serve as a functional read-out for many G protein-coupled receptors.)

A further assay has as its target T2, GPR3 (Homo sapiens, UniProt P46089).
T2 construct: expressed in transfected cells; host or cells: CHO cells
Description: GPR3 antagonist functional cAMP assay (LANCE Ultra cAMP TR-FRET, CHO cells stably expressing GPR3). The class given is cell-based. The method, boiled down:
as §1

The mark [1] stands for this setting: CHO cells stably expressing GPR6, cAMP assay (Example 24).
Setting [2] is: CHO cells stably expressing GPR3, cAMP assay (Example 24).
The mark [3] stands for this setting: CHO cells stably expressing GPR6, cAMP assay.
Where [4] appears, read: CHO cells stably expressing GPR3, cAMP assay.
Where [5] appears, read: procedure as described in Example 24.

T1 sequence (P46095 whole entry): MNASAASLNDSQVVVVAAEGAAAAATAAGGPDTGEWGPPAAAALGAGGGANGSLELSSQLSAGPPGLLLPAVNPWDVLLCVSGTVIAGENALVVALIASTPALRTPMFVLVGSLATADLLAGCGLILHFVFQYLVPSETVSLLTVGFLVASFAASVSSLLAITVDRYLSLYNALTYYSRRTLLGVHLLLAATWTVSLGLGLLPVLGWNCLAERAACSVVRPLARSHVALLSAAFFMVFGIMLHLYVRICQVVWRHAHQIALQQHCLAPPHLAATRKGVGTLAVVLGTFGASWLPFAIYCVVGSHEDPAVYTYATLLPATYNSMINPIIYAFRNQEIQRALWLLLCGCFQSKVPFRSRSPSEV
T2 sequence (P46089 whole entry, species assumed): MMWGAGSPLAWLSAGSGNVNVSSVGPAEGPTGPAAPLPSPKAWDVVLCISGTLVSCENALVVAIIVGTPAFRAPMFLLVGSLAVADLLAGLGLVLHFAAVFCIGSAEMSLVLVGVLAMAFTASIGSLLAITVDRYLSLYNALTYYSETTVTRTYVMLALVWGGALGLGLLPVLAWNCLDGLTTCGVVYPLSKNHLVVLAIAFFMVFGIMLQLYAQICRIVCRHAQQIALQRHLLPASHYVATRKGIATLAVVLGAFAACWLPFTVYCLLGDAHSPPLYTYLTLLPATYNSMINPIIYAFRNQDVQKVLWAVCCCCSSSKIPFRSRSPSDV

The IC50 is the concentration that inhibits the measured activity by half. On to `Cn1cc(-c2nc3cnc(CCO)cc3nc2N2CCC(Oc3ccc(F)cc3F)CC2)cn1` [Compound 468, 2-{2-[4-(2,4-difluorophenoxy)piperidin-1-yl]-3-(1-methyl-1H-pyrazol-4-yl)pyrido[3,4-b]pyrazin-7-yl}ethan-1-ol], for which the IC50 at GPR6 (setting [1]) is 0.1 to 1 µM; against GPR3 (setting [2]), 1 to 30 µM.
For the compound `CC(C)(O)C(=O)c1cc2nc(N3CCN(Cc4ccccc4F)CC3)c(-c3cnn(CF)c3)nc2cn1` [Compound 608, 1-{3-[1-(fluoromethyl)-4-pyrazolyl]-2-{4-[(o-fluorophenyl)methyl]-1-piperazinyl}-1,4,6-triaza-7-naphthyl}-2-hydroxy-2-methyl-1-propanone], the half-inhibitory concentration (IC50) against GPR6 (setting [3]) lay in the range of 0.1 to 1 µM; on GPR3 (setting [4]), 1 to 30 µM.
With `CC(=O)N1CCc2nc(N3CCN(Cc4c(F)cc(F)cc4F)CC3)c(-c3cnn(C)c3)nc2C1` [Compound 343, 1-[3-(1-methyl-1H-pyrazol-4-yl)-2-{4-[(2,4,6-trifluorophenyl)methyl]piperazin-1-yl}-5H,6H,7H,8H-pyrido[3,4-b]pyrazin-6-yl]ethan-1-one], the IC50 at GPR6 (procedure of Example 24) and against GPR3 (procedure of Example 24) was 1 to 30 µM in each case.
For `CC(C)(O)[C@@H](O)c1cc2nc(N3CCN(Cc4ccc(F)cc4F)CC3)c(-c3cnn(CF)c3)nc2cn1` (single isomer, unassigned) [Compound 599], the IC50 against GPR6 (setting [3]) fell in the range of 0.1 to 1 µM; against GPR3 (setting [4]), 1 to 30 µM.
As to `CC(=O)N1CCc2nc(N3CCN(Cc4ccco4)CC3)c(-c3cnn(C)c3)nc2C1` [Compound 537, 1-[2-(4-furfuryl-1-piperazinyl)-3-(1-methyl-4-pyrazolyl)-5,6,7,8-tetrahydro-1,4,6-triaza-6-naphthyl]-1-ethanone], the IC50 on GPR6 (setting [3]) and against GPR3 (setting [4]) was 1 to 30 µM in each case.
Take `CC(=O)N1CCc2nc(N3CCN(C(O)c4cocn4)CC3)c(-c3cnn(C)c3)nc2C1` (stereo not drawn) [Compound 523, 1-(2-{4-[hydroxy(1,3-oxazol-4-yl)methyl]-1-piperazinyl}-3-(1-methyl-4-pyrazolyl)-5,6,7,8-tetrahydro-1,4,6-triaza-6-naphthyl)-1-ethanone]: the IC50 at GPR6 (setting [3]) and against GPR3 (setting [4]) was ≥ 30 µM throughout.
`Clc1ccc(Cl)c(CN2CCN(c3nc4ccncc4nc3-c3ncc[nH]3)CC2)c1` [Compound 5, 1-[(2,5-dichlorophenyl)methyl]-4-[3-(1H-imidazol-2-yl)pyrido[3,4-b]pyrazin-2-yl]piperazine]: the IC50 at GPR6 (setting [5]) was 0.1 to 1 µM; against GPR3 (setting [5]), 1 to 30 µM.
Take `CC(C)(O)C(=O)c1cc2nc(N3CCN(Cc4ccc(F)cc4F)CC3)c(-c3cnn(C4CC4)c3)nc2cn1` [Compound 619, 1-[3-(1-cyclopropyl-4-pyrazolyl)-2-{4-[(2,4-difluorophenyl)methyl]-1-piperazinyl}-1,4,6-triaza-7-naphthyl]-2-hydroxy-2-methyl-1-propanone]: the IC50 at GPR6 (procedure of Example 24) was in the range of 0.1 to 1 µM; on GPR3 (procedure of Example 24), 1 to 30 µM.
For the compound `CC(C)(O)C(O)c1cc2nc(-c3cnn(CF)c3)c(N3CCC(Oc4ccc(F)cc4F)CC3)nc2cn1` (single isomer, unassigned) [Compound 593], the IC50 was < 0.1 µM on GPR6 (setting [3]) and 0.1 to 1 µM at GPR3 (setting [4]).
`COC[C@@H](O)c1cc2nc(N3CCC(Oc4ccc(F)cc4F)CC3)c(-c3cnn(C)c3)nc2cn1` (single isomer, unassigned) [Compound 642]: the half-inhibitory concentration (IC50) fell in the range of 0.1 to 1 µM at GPR6 (procedure of Example 24) and 1 to 30 µM against GPR3 (procedure of Example 24).
Consider `Cn1cc(-c2nc3cc(C(O)C(C)(C)O)ncc3nc2N2CCC(Oc3ccc(F)cc3F)CC2)cn1` (single isomer, unassigned) [Compound 562], for which the IC50 at GPR6 (setting [3]) is < 0.1 µM; against GPR3 (setting [4]), 0.1 to 1 µM.
Consider `CC(=O)N1CCc2nc(N3CCC(Oc4ccc(F)cc4F)CC3)c(-c3cccc(=O)[nH]3)nc2C1` [Compound 33, 6-(6-acetyl-2-(4-(2,4-difluorophenoxy)piperidin-1-yl)-5,6,7,8-tetrahydropyrido[3,4-b]pyrazin-3-yl)pyridin-2(1H)-one], for which the results for the IC50 against GPR6 (setting [5]) and against GPR3 (setting [5]) were 0.1 to 1 µM and 1 to 30 µM, respectively.
For the compound `Cn1cc(-c2nc3cnc(C4CC4CO)cc3nc2N2CCC(Oc3ccc(F)cc3F)CC2)cn1` (stereo not drawn) [Compound 768, (2-{2-[4-(2,4-difluorophenoxy)-1-piperidyl]-3-(1-methyl-4-pyrazolyl)-1,4,6-triaza-7-naphthyl}cyclopropyl)methanol], the IC50 against GPR6 (procedure of Example 24) and at GPR3 (procedure of Example 24) was 1 to 30 µM in each case.
Turning to `CC(C)(O)Cc1cc2nc(-c3cnn(C(F)F)c3)c(N3CCC(Oc4ccc(F)cc4F)CC3)nc2cn1` [Compound 714, 1-{2-[1-(difluoromethyl)-4-pyrazolyl]-3-[4-(2,4-difluorophenoxy)-1-piperidyl]-1,4,6-triaza-7-naphthyl}-2-methyl-2-propanol], the IC50 was in the range of 0.1 to 1 µM on GPR6 (procedure of Example 24) and 1 to 30 µM against GPR3 (procedure of Example 24).
For the compound `CC(=O)N1CCc2nc(N3CCN(C(=O)c4cc(F)cc(F)c4)CC3)c(-c3cnn(C)c3)nc2C1` [Compound 285, 1-{2-[4-(3,5-difluorobenzoyl)piperazin-1-yl]-3-(1-methyl-1H-pyrazol-4-yl)-5H,6H,7H,8H-pyrido[3,4-b]pyrazin-6-yl}ethan-1-one], the IC50 against GPR6 (procedure of Example 24) is ≥ 30 µM; on GPR3 (procedure of Example 24), 1 to 30 µM.
As to `CN(C)C(=O)N1CCc2nc(N3CCC(Oc4ccc(F)cc4F)CC3)c(-c3ccc(F)c(N)n3)nc2C1` [Compound 629, 6-{6-(N,N-dimethylcarbamoyl)-2-[4-(2,4-difluorophenoxy)-1-piperidyl]-5,6,7,8-tetrahydro-1,4,6-triaza-3-naphthyl}-3-fluoro-2-pyridylamine], the 50% inhibitory concentration (IC50) at GPR6 (procedure of Example 24) was < 0.1 µM; against GPR3 (procedure of Example 24), 1 to 30 µM.
`CC(=O)N1CCc2nc(N3CCC(Oc4ccc(F)cc4F)CC3)c(-c3cccc(C(O)C(F)F)n3)nc2C1` (stereo not drawn) [Compound 210, 1-(3-[6-(2,2-difluoro-1-hydroxyethyl)pyridin-2-yl]-2-[4-(2,4-difluorophenoxy)piperidin-1-yl]-5H,6H,7H,8H-pyrido[3,4-b]pyrazin-6-yl)ethan-1-one]: the IC50 at GPR6 (setting [1]) and at GPR3 (setting [2]) was 1 to 30 µM throughout.
For `CC(=O)N1CCc2nc(N3CCN(Cc4ccccc4)CC3)c(-c3cnn(C)c3)nc2C1` [Compound 280, 1-[2-(4-benzylpiperazin-1-yl)-3-(1-methyl-1H-pyrazol-4-yl)-5H,6H,7H,8H-pyrido[3,4-b]pyrazin-6-yl]ethan-1-one], the IC50 against GPR6 (procedure of Example 24) and at GPR3 (procedure of Example 24) was 1 to 30 µM in each case.
For `COC1CN(c2cc3nc(N4CCC(Oc5ccc(F)cc5F)CC4)c(-c4cnn(C)c4)nc3cn2)C1` [Compound 450, 4-(2,4-difluorophenoxy)-1-[7-(3-methoxyazetidin-1-yl)-3-(1-methyl-1H-pyrazol-4-yl)pyrido[3,4-b]pyrazin-2-yl]piperidine], the half-inhibitory concentration (IC50) against GPR6 (setting [1]) and against GPR3 (setting [2]) was 1 to 30 µM in each case.
`CC(=O)N1CCc2nc(N3CCCC(Oc4ccccc4)C3)c(-c3cnn(C)c3)nc2C1` (stereo not drawn) [Compound 335, 1-[3-(1-methyl-1H-pyrazol-4-yl)-2-(3-phenoxypiperidin-1-yl)-5H,6H,7H,8H-pyrido[3,4-b]pyrazin-6-yl]ethan-1-one]: the values for the IC50 against GPR6 (procedure of Example 24) and against GPR3 (procedure of Example 24) were ≥ 30 µM and 1 to 30 µM, respectively.
For the compound `CC(C)(C)OC(=O)N1CC(C(=O)N2CCc3nc(N4CCC(Oc5ccc(F)cc5F)CC4)c(-c4cnn(C5CCCCO5)c4)nc3C2)C1` (stereo not drawn) [Compound 152, tert-butyl 3-{2-[4-(2,4-difluorophenoxy)piperidin-1-yl]-3-[1-(oxan-2-yl)-1H-pyrazol-4-yl]-5H,6H,7H,8H-pyrido[3,4-b]pyrazine-6-carbonyl}azetidine-1-carboxylate], the IC50 against GPR6 (setting [1]) and against GPR3 (setting [2]) was 1 to 30 µM in each case.
Regarding `CC(C)(O)C(C)(O)c1cc2nc(-c3cnn(C(F)F)c3)c(N3CCN(Cc4ccc(F)cc4F)CC3)nc2cn1` (stereo not drawn) [Compound 633, 2-{2-[1-(difluoromethyl)-4-pyrazolyl]-3-{4-[(2,4-difluorophenyl)methyl]-1-piperazinyl}-1,4,6-triaza-7-naphthyl}-3-methyl-2,3-butanediol], the IC50 is < 0.1 µM against GPR6 (procedure of Example 24) and 1 to 30 µM at GPR3 (procedure of Example 24).
As to `CC(=O)N1CCc2nc(N3CCC(Oc4ccc(F)cc4F)CC3)c(C3CCCC(=O)N3)nc2C1` (stereo not drawn) [Compound 258, 6-{6-acetyl-2-[4-(2,4-difluorophenoxy)piperidin-1-yl]-5H,6H,7H,8H-pyrido[3,4-b]pyrazin-3-yl}piperidin-2-one], the IC50 against GPR6 (setting [1]) and on GPR3 (setting [2]) was ≥ 30 µM throughout.
On to `COC1CCCC(c2nc3c(nc2N2CCC(Oc4ccc(F)cc4F)CC2)CCN(C(C)=O)C3)C1` (stereo not drawn) [Compound 248, 1-{2-[4-(2,4-difluorophenoxy)piperidin-1-yl]-3-(3-methoxycyclohexyl)-5H,6H,7H,8H-pyrido[3,4-b]pyrazin-6-yl}ethan-1-one], for which the IC50 at GPR6 (setting [1]) and on GPR3 (setting [2]) was 1 to 30 µM each time.
`CNC(=O)c1ccc2nc(-c3nccn3COC)c(N3CCN(Cc4cc(Cl)ccc4Cl)CC3)nc2c1` [Compound 6, 3-{4-[(2,5-dichlorophenyl)methyl]piperazin-1-yl}-2-[1-(methoxymethyl)-1H-imidazol-2-yl]-N-methylquinoxaline-6-carboxamide]: the IC50 against GPR6 (setting [5]) and on GPR3 (setting [5]) was 1 to 30 µM each time.
Regarding `COCC1(Oc2ccc(F)cc2F)CCN(c2nc3ccncc3nc2-c2cn[nH]c2)CC1` [Compound 63, 2-(4-(2,4-difluorophenoxy)-4-(methoxymethyl)piperidin-1-yl)-3-(1H-pyrazol-4-yl)pyrido[3,4-b]pyrazine], the IC50 on GPR6 (setting [1]) fell in the range of 1 to 30 µM; on GPR3 (setting [2]), 0.1 to 1 µM.
In the case of `Fc1ccc(OC2CC=C(c3nc4ccncc4nc3-c3ncco3)CC2)c(F)c1` (stereo not drawn) [Compound 301, 2-{2-[4-(2,4-difluorophenoxy)cyclohex-1-en-1-yl]pyrido[3,4-b]pyrazin-3-yl}-1,3-oxazole], the concentration for half-maximal inhibition (IC50) against GPR6 (procedure of Example 24) and on GPR3 (procedure of Example 24) was 1 to 30 µM in each case.

For the origin of these results see US20260042755A1, “GPR6 INVERSE AGONISTS” (MapLight Therapeutics, Inc., priority 2022, published 2026).
